{"source": "patent US20200246284A1", "about": "(Academia Sinica, priority 2015, published 2020)", "key": {"[1]": {"system": "H889", "assay": "Cytotoxicity SCLC 72 hr alamar blue", "type": "cell-based, human", "conditions": "Homo sapiens, NCI-H889, 72 h"}, "[2]": {"system": "JEKO-1", "assay": "Cytotoxicity mantle cell lymphoma", "procedure": "After 72 hours, the cultures were pulsed with Alamar Blue overnight, and the fluorescent intensity of resulted cultures was measured by a Synergy H1 plate-reader (BioTek Inc)."}, "[3]": {"system": "nude mice bearing prostate 22Rv/HL2 tumor xenografts", "conditions": "mouse, in vivo"}, "[4]": {"system": "nude mice bearing prostate 22Rv/HL2", "conditions": "mouse, in vivo"}, "[5]": {"system": "nude mice bearing prostate 22Rv/HL2", "conditions": "mouse, in vivo", "remark": "listed apart in the source"}, "[6]": {"conditions": "rat"}, "[7]": {"assay": "in vitro", "conditions": "rat, microsomes"}, "[8]": {"system": "MA-10-W51", "assay": "Cytotoxicity leukemia", "type": "cell-based, human", "conditions": "growth factor dependent MA-10-W51", "description": "Human cord blood CD34+ cells transduced with MLL-AF9 gene: MA-10, MA-18. Human bone marrow CD34+ cells transduced with MLL-AF9 gene: MA-23. Human cord blood CD34+ cells transduced with MLL-AF9 and N-ras genes: MA-9.3, […] )."}, "[9]": {"system": "BCI-NSI hTERT bronchial epithelium", "assay": "Cytotoxicity normal tissue 72 hr", "type": "cell-based, human"}, "[10]": {"system": "FTE-hTERT Fallopian epithelium", "assay": "Cytotoxicity normal tissue 72 hr", "type": "cell-based, human"}, "[11]": {"system": "HUVEC umbilical endothelium", "assay": "Cytotoxicity normal tissue 72 hr", "type": "cell-based, human"}, "[12]": {"system": "BMMSC BM mesenchyme", "assay": "Cytotoxicity normal tissue 72 hr", "type": "cell-based, human"}, "[13]": {"system": "CV1 renal fibroblasts", "assay": "Cytotoxicity normal tissue 72 hr", "type": "cell-based, African green monkey (Cercopithecus aethiops)", "conditions": "Chlorocebus sabaeus, Fibroblast, 72 h"}}, "note": "Read-outs that look alike come from different tables or passages of the source.", "data": [{"smiles": "O=NN(CCCl)C(=O)NCCCl", "note": "[BCNU, BCNU/Carmustine]", "values": [{"measurement": "IC50", "setting": "[1]", "result": "> 45", "unit": "µM"}]}, {"smiles": "CC[C@]1(O)C[C@H]2CN(CCc3c([nH]c4ccccc34)[C@@](C(=O)OC)(c3cc4c(cc3OC)N(C=O)[C@H]3[C@@](O)(C(=O)OC)[C@H](OC(C)=O)[C@]5(CC)C=CCN6CC[C@]43[C@@H]65)C2)C1", "note": "[Vincristine]", "values": [{"measurement": "IC50", "setting": "[2]; JEKO-1, 72 hr (Table 27)", "result": 0.39, "unit": "µM"}]}, {"smiles": "CC(=O)O[C@@]12CO[C@@H]1C[C@H](O)[C@@]1(C)C(=O)[C@H](O)C3=C(C)[C@@H](OC(=O)[C@H](O)[C@@H](NC(=O)OC(C)(C)C)c4ccccc4)C[C@@](O)([C@@H](OC(=O)c4ccccc4)[C@H]21)C3(C)C", "note": "[Docetaxel]", "values": [{"measurement": "pathological change in heart, liver, spleen, lung and kidney", "setting": "[3]", "result": "no apparent pathological change"}, {"measurement": "ALT", "setting": "[4]", "result": 54.08, "unit": "U/L"}, {"measurement": "AST", "setting": "[4]", "result": 108.60, "unit": "U/L"}, {"measurement": "BUN", "setting": "[4]", "result": 21.93, "unit": "mg/dL"}, {"measurement": "CREA", "setting": "[4]", "result": 0.32, "unit": "mg/dL"}, {"measurement": "UA", "setting": "[4]", "result": 3.60, "unit": "mg/dL"}, {"measurement": "BASO", "setting": "[5]", "result": "0.08 10^3/μL"}, {"measurement": "EOS", "setting": "[5]", "result": "0.12 10^3/μL"}, {"measurement": "LYM", "setting": "[5]", "result": "0.66 10^3/μL"}, {"measurement": "MONO", "setting": "[5]", "result": "0.04 10^3/μL"}, {"measurement": "NEU", "setting": "[5]", "result": "1.34 10^3/μL"}, {"measurement": "PLT", "setting": "[5]", "result": "308 10^3/μL"}, {"measurement": "RBC", "setting": "[5]", "result": "7.55 10^6/μL"}, {"measurement": "WBC", "setting": "[5]", "result": "2.49 10^3/μL"}]}, {"smiles": "CCOc1ccc2ccc(=O)oc2c1", "note": "[7-EC, 7-Ethoxycoumarin]", "values": [{"measurement": "MR (metabolic rate)", "setting": "[6]", "result": 0.0448, "unit": "nmol/min/mg"}, {"measurement": "% Remaining at 60 min", "setting": "[6]; microsomes, 1 h", "result": 18, "unit": "%"}, {"measurement": "Microsome stability, standards", "setting": "[6]; microsomes, 1 h", "result": "High standard = 95%"}, {"measurement": "Microsome stability, turnover", "setting": "[6]; microsomes, 1 h", "result": "7-EC ≥ 82%)"}, {"measurement": "half-life", "setting": "[7]", "result": 23.5, "unit": "min"}]}, {"smiles": "COc1cc([C@@H]2c3cc4c(cc3[C@@H](O[C@@H]3O[C@@H]5CO[C@@H](C)O[C@H]5[C@H](O)[C@H]3O)[C@H]3COC(=O)[C@H]23)OCO4)cc(OC)c1O", "note": "[Etoposide]", "values": [{"measurement": "IC50", "setting": "[2]", "result": 0.78, "unit": "µM"}]}, {"smiles": "CCc1c(CO)c(CO)c2n1Cc1c(c3ccccc3n1C)C2", "note": "[BO-1978]", "values": [{"measurement": "cytotoxicity, dose titration (FIG. 9)", "setting": "[8]", "result": "highly cytotoxic, with BO-1978 more so than BO-1055"}]}, {"smiles": "CCc1c2c(nc3ccc(O)cc13)-c1cc3c(c(=O)n1C2)COC(=O)[C@]3(O)CC", "note": "[SN-38]", "values": [{"measurement": "IC50", "setting": "[9]; read-out: IC50", "result": 500, "unit": "µM"}, {"measurement": "IC50", "setting": "[10]", "result": 2000, "unit": "µM"}, {"measurement": "IC50", "setting": "[11]; read-out: IC50", "result": 400, "unit": "µM"}, {"measurement": "IC50", "setting": "[12]", "result": 200, "unit": "µM"}, {"measurement": "IC50", "setting": "[2]", "result": 0.8, "unit": "µM"}]}, {"smiles": "Cn1c(CCCC(=O)O)nc2cc(N(CCCl)CCCl)ccc21", "note": "[Bendamustine]", "values": [{"measurement": "IC50", "setting": "[9]", "result": 150, "unit": "µM"}, {"measurement": "IC50", "setting": "[11]", "result": 150, "unit": "µM"}, {"measurement": "IC50", "setting": "[13]", "result": "> 100", "unit": "µM"}, {"measurement": "IC50", "setting": "[2]", "result": 6.25, "unit": "µM"}]}]}
